pIC50: −log10 of the molar value.

For 16 compounds, IC50 results are on record in BindingDB's records for doi:10.7270/Q2MC8XP5 (Burnham Center For Chemical Genomics, 2013).

The experiment deals with Protein artemis (Homo sapiens, UniProt Q96SD1). As to the kind of experiment: Artemis endonuclease inhibitor potency, dose response, biochemical, fluorescence intensity (AID 720701).
Protein artemis, sequence (Q96SD1 whole entry): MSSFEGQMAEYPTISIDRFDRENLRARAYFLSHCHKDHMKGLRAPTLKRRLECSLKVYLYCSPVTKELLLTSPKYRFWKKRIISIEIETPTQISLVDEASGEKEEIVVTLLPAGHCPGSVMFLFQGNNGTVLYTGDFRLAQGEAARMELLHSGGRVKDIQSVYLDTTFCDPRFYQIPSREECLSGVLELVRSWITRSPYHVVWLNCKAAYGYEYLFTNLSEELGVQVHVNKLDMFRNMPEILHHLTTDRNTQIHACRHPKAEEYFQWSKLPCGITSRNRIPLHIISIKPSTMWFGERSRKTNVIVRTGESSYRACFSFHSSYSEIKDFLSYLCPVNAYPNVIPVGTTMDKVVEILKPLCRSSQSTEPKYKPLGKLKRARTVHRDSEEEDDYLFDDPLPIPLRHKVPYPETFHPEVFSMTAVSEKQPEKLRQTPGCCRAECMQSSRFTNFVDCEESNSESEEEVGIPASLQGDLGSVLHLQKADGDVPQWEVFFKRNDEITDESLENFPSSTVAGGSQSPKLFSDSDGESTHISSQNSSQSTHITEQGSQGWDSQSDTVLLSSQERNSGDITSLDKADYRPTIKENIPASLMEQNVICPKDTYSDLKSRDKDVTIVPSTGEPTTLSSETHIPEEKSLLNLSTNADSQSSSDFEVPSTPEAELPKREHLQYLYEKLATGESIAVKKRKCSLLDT
For orientation: pIC50 means the IC50 on a negative log10 scale, so that one unit is a factor of ten. The compound `CC(N=O)c1ccccc1C(=O)O` (stereo unspecified) [SMR000038583] gave a pIC50 of 5.44. For `CN1c2cccc3cccc(c23)C1N=O` (stereo unspecified) [1-Methyl-1H-benzo[cd]indol-2-one oxime], the pIC50 was < 4.70.

`NS(=O)(=O)c1ccc2c(c1)C1C=CCC1C(C1CC=CCC1)N2` (stereo unspecified) [MLS000530517] gave a pIC50 of 5.02. The same measure for `CCCCc1ccc(/C=C2\C(=O)ON=C2c2ccccc2)s1` [4-(5-Butyl-thiophen-2-ylmethylene)-3-phenyl-4H-isoxazol-5-one]: 4.79; for `CCN(CC)c1ccc(CN=Nc2nc3ccccc3[nH]2)c(O)c1` [MLS000541069]: 4.81.

Take `CCCCOc1ccc(/C=C2/Sc3ccccc3C2=O)cc1` [2-(4-Butoxy-benzylidene)-benzo[b]thiophen-3-one]: the pIC50 was < 4.70. `C=CCN1C(=O)S/C(=C\c2ccc(N3CCOCC3)cc2C)C1=O` [(5Z)-5-[[2-methyl-4-(4-morpholinyl)phenyl]methylidene]-3-prop-2-enylthiazolidine-2,4-dione]: the pIC50 is 5.82. For the compound `CCOc1ccc(-n2c(O)c(C=Nc3ccc(N4CCOCC4)cc3)c(=O)[nH]c2=O)cc1` [SMR000109118], the pIC50 is < 4.70. For the compound `N#CC(C(=O)NCc1ccccc1)c1nc2ccccc2nc1N1CCCC1` (stereo unspecified) [2-cyano-N-(phenylmethyl)-2-(3-pyrrolidin-1-ylquinoxalin-2-yl)ethanamide], the pIC50 was 5.30. Regarding `Cc1cccc(CN2C(=O)N/C(=C/c3ccc(C)s3)C2=O)c1`, the pIC50 is 4.79. Consider `COc1ccc(O)c(CN=Nc2nc(Nc3ccccc3)nc(-n3nc(C)cc3C)n2)c1` [(6E)-6-[[2-[4-(3,5-dimethylpyrazol-1-yl)-6-phenylazanyl-1,3,5-triazin-2-yl]hydrazinyl]methylidene]-4-methoxy-cyclohexa-2,4-dien-1-one], for which the pIC50 is 5.65. As for `N#CC1C(=N)Oc2[nH]nc(-c3cccs3)c2C1c1ccoc1` (stereo unspecified) [6-amino-4-(furan-3-yl)-3-thiophen-2-yl-2,4-dihydropyrano[2,3-c]pyrazole-5-carbonitrile], the pIC50 is < 4.70. The compound `CCCCCCCCCC(N=O)c1ccccn1` (stereo unspecified) [1-Pyridin-2-yl-decan-1-one oxime] gave a pIC50 of 4.96. The same measure for `O=C1C=Cc2ccccc2/C1=C/NC12CN3CCN(CN(C3)C1)C2` [MLS000071484]: 5.44. The same measure for `COc1ccc(Nc2nc(N=NCc3ccccc3)nc(NCc3ccco3)n2)cc1`: 5.58. The same measure for `O=c1c2ccccc2nc(N=NCc2c(O)ccc3ccccc23)n1O` [SMR000145705]: 5.33.
